This is an account of results in US12083105B2, “Compositions and methods for treating adult-onset neuronal ceroid lipofuscinosis (Kufs disease)” (CORNELL UNIVERSITY, priority 2020, dated 2024).

The subject of this experiment is SNAP-25. In words: SNAP-25 levels in total lysate of CSPα−/− primary cortical neurons (quantitative immunoblotting, β-actin normalization). The class given is cell-based, mice. The settings on record: 200 μM, 72 h, FIG. 3D; for augmentation of SNAP-25 levels: neurons expressing CSPα^L115R and CSPα^L116Δ; for SNAP-25 levels: neurons expressing CSPα^WT or SSPα. The source says:
For the experiments shown in FIGS. 3A-3E, primary cortical neurons from neonatal CSPα^−/− mice were infected with lentiviruses expressing Myc-tagged CSPα^WT, CSPα^L115R, CSPα^L116Δ, SSPα, or empty lentivirus (Control) on 7 days in vitro (DIV) and examined on 17 DIV. […] The lentivirus infected cells were stained using antibodies against Myc (green), somatodendritic marker MAP2 (red), and counterstained with nuclear stain DAPI (blue). […] Immunoprecipitation (IP) for SNAP-25 was followed by quantitative immunoblotting of the co-immunoprecipitated (co-IP'd) CSPα (top blot), and normalized to the IP'd SNAP-25 (bottom blot). IP: Control=sham IP without IgG. Palm=palmitoylated. […] The mutant CSPα signal was normalized to the amount of immunoprecipitated wilt type CSPα. N.D.=not detected. Representative data from of n=4 shown. […] Immunoprecipitation using anti-synaptobrevin-2 (Syb-2) antibody was followed by quantitative immunoblotting of co-IP'd SNARE-complex partners syntaxin-1 (Synt-1) and SNAP-25. IP: Control=sham IP with plain rabbit serum. […] The Synt-1 signal was normalized to the amount of each normalized to the IP'd Syb-2. Representative data from of n=4 shown. […] The SNAP-25 signal was normalized to the amount of each normalized to the IP'd Syb-2. For the experiments shown in FIGS. 3D-3E, CSPα^−/− primary cortical neurons were lentivirally infected to express Myc-tagged CSPα^WT, CSPα^L115R, CSPα^L116Δ, SSPα, or empty lentivirus (Control) on 5 DIV, and were treated on 12 DIV with vehicle (-=0.1% DMSO), or iron chelators deferiprone (L1=200 μM) and deferoxamine (Dfx=200 μM) for 72 h. […] Cell extracts were separated by SDS-PAGE, and subjected to quantitative immunoblotting using anti-SNAP-25 antibody and β-actin for normalization. To measure palmitoylation, oligomers were disrupted by lysing neurons in 0.1 N HCl plus 0.1% Triton X-100 for 20 min at 4° C., followed by SDS-PAGE and quantitative immunoblotting against CSPα. Representative immunoblots are shown. […] FIG. 3D (right panel) show quantitation of oligomers, palmitoylated CSPα, respectively, in corresponding lane and expressed as a percentage of total. […] Cell extracts were immunoprecipitated using a negative control or anti-Syb-2 antibody, followed by quantitative immunoblotting of the co-IP'd t-SNAREs SNAP-25 and Synt-1. […] In FIGS. 3B-3E data represent means±SEM. *P<0.05; **P<0.01; ***P<0.001; ****P<0.0001 by two-tailed Student's t-test. #P<0.05 by Mann-Whitney-Wilcoxon U test. n.s.=not significant; n.d.=not detected. […]
For SDS-PAGE, 10-15% Laemmli gels (10.3% T and 3.3% C) were used to separate proteins on Bio-Rad apparati. […] Immunoblots were washed 5× with TBS-T and dried, then scanned on Odyssey CLx (LI-COR) and quantified using Image-Studio software (LI-COR). […]
(In general: In western blotting, separated proteins are transferred to a membrane and probed.)

Take `CC(=O)N(O)CCCCCNC(=O)CCC(=O)N(O)CCCCCNC(=O)CCC(=O)N(O)CCCCCN` [Dfx, N′-[5-(Acetyl-hydroxy-amino)pentyl]-N-[5-[3-(5-aminopentyl-hydroxy-carbamoyl)propanoylamino]pentyl]-N-hydroxy-butane diamide]: the “augmentation of SNAP-25 levels” value is listed as “approximately two-fold” and the SNAP-25 levels result was “neither L1 nor Dfx affected SNAP-25 levels”.
As for `Cc1c(O)c(=O)ccn1C` [L1, 3-hydroxy-1,2-dimethyl-4(1H)-pyridone], the “augmentation of SNAP-25 levels” value was “approximately two-fold” and the SNAP-25 levels entry is listed as “neither L1 nor Dfx affected SNAP-25 levels”.
